Data published in ChEMBL document CHEMBL3393018, “Multimodal biopanning of T7 phage-displayed peptides reveals angiomotin as a potential receptor of the anti-angiogenic macrolide Roxithromycin” (Eur J Med Chem, 2015).
Active and inactive are the calls of the source. The rule behind the calls is not given here.

Key:
[1] = target: T1, Angiomotin (Homo sapiens) (UniProt Q4VCS5); experiment: Binding affinity to recombinant GST-tagged Amot (H343 to I675 residues) (unknown origin) expressed in Escherichia coli at 25 uM using Amot immobilized on gold electrode of QCM sensor chip by […] biosensor-based assay
T1 sequence (whole entry): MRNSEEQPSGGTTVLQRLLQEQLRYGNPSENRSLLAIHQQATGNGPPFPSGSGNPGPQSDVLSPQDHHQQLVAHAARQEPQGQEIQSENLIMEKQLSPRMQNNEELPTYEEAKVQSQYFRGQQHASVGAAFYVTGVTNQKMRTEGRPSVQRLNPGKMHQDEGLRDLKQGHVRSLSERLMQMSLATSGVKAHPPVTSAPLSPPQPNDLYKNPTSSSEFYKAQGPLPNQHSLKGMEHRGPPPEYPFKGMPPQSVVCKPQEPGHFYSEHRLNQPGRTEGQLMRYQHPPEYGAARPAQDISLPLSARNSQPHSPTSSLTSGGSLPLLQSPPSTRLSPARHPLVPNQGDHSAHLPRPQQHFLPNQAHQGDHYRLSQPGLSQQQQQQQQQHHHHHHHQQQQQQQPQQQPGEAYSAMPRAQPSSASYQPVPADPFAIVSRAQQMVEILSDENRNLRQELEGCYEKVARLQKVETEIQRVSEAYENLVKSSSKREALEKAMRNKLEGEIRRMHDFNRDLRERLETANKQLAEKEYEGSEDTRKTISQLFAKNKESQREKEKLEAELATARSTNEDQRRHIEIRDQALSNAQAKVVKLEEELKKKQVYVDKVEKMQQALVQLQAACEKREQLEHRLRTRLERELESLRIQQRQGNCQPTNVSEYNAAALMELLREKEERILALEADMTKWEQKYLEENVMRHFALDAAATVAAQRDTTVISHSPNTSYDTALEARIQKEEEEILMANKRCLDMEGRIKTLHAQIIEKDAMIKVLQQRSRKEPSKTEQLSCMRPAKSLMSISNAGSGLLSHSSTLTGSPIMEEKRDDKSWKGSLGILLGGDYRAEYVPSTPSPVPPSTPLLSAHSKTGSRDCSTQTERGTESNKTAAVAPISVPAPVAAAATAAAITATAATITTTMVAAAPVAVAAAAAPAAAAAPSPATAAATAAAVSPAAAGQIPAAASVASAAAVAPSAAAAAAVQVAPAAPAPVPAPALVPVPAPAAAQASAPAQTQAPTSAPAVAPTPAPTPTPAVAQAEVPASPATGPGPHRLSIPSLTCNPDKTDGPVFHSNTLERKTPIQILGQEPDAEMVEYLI

[2] = target: T1, Angiomotin (Homo sapiens); experiment: Binding affinity to recombinant GST-tagged Amot (H343 to I675 residues) (unknown origin) expressed in Escherichia coli at 50 uM using Amot immobilized on gold electrode of QCM sensor chip by […] biosensor-based assay
HUVEC = experiment: Inhibition of cell proliferation of HUVEC at 12.5 to 200 uM after 72 hrs by MTS assay; format: functional, cell-based; conditions: Homo sapiens

Activity [1]: Active
Activity [2]: Active
SMILES: CC[C@H]1OC(=O)[C@H](C)[C@@H](O[C@H]2C[C@@](C)(OC)[C@@H](O)[C@H](C)O2)[C@H](C)[C@@H](O[C@@H]2O[C@H](C)C[C@H](N(C)C)[C@H]2O)[C@](C)(O)C[C@@H](C)/C(=N\OCOCCOC)[C@H](C)[C@@H](O)[C@]1(C)O [ROXITHROMYCIN]
IC50 (HUVEC): 100 µM
